This note sets out measurements from patent US12606533B2, “3-phenylpropylamine derivative” (DAIICHI SANKYO COMPANY, LIMITED, priority 2023, dated 2026).

Structures can show the parent of a compound that is named as a salt. A value given as a limit tells only on which side of the number the result lay.

The target in experiment [1] is SF1-LBD (Homo sapiens, UniProt Q13285). In words: Inhibitory activity against binding of DAX1 to SF1-LBD (AlphaLISA). The following applies: inhibition of binding of DAX1 peptide to His-SF1-LBD, read-out: cell-free SF1 IC50. On the procedure:
The binding activity of each compound to the SF-1 ligand binding domain (LBD) was evaluated using the binding inhibitory activity of each compound against binding of DAX1 to SF1-LBD as an index. 100 nM His-SF1-LBD, 2 nM Biotin-DAX1 peptide (Biotin-[…]-NH2) and each compound (8-point i1 dilution series with common ratio 2 from final concentration 2 μM) were mixed in assay buffer [25 mM HEPES (pH 7.5), 100 mM NaCl, 0.1% BSA, 0.01% CHAPS, 1 mM DTT] and reacted at room temperature for 30 min. Anti-6×His AlphaLISA Acceptor beads and Streptavidin-coated AlphaScreen Donor beads were mixed to a final concentrations of 5 μg/ml and 10 μg/ml, respectively, and reacted in the dark at room temperature for 60 min. AlphaLISA signals were detected using a multimode plate reader (EnVision Xcite, PerkinElmer). The binding rate of DAX1 peptide to SF1 was calculated from the luminescence amount (C) of the compound-free group and the luminescence amount (T) of the compound-added group, based on the following formula.
The DAX1 peptide binding rate at each concentration was analyzed using GraphPad Prism6 (GraphPad Software Inc.) to calculate the concentration (IC50 value) of each compound that inhibits 50% of the binding of DAX1 to SF1-LBD.

Experiment [2] has as its system CYP21A2. Briefly: Changes in SF1 target gene expression for NCI-H295R: CYP21A2 mRNA (qPCR). The following applies: Homo sapiens, NCI-H295R cells, 24 hr. Format: cell-based. On the procedure:
(§1) NCI-H295R cells were cultured in a 5% CO2 incubator at 37° C. using DMEM/F12 medium (Thermo Fisher Scientific Inc.) containing 2.5% Nu-Serum (registered trademark) Growth Medium Supplement (Corning) and 1% Corning ITS+ Premix Universal Culture Supplement (Corning). The DMSO solution of each compound was serially diluted with DMSO using a D300e Digital Dispenser (TECAN), and the compounds were added to a 96-well plate (FALCON). NCI-H295R cells were seeded at 1×10^4 cells/50 μL/well on the 96-well plate containing the compounds added thereto, and cultured for 24 hr in a 5% CO2 incubator at 37° C. The final DMSO concentration in the medium was adjusted to 0.1% (v/v) in all cases, and the concentration range of the compounds was set to 1000 nM to 0.32 nM with a common ratio […]. After the completion of culture, the medium was discarded, 50 μL/well of chilled D-PBS (Sigma Aldrich) was added to wash the cells, and D-PBS was discarded. After washing, 25 μL/well of Cells-to-CT (registered trademark) Bulk Lysis Reagents (Thermo Fisher Scientific, Inc.) was added to the wells, the mixture was stirred for 5 min with a plate mixer, and 2.5 μL/well of the reaction quenching liquid was added to prepare cell lysate. The cell lysate was dispensed into a 96-well plate (Corning) at 10 μL/well, and 40 μL/well of Cells-to-CT Bulk RT Reagents (Thermo Fisher Scientific, Inc.) was added. A reverse transcription reaction was performed at 37° C. for 50 min using a thermal cycler, and the reverse transcriptase was inactivated by heating at 95° C. for 5 min, and then stored at 10° C. PrimeTime (registered trademark) Gene Expression Master Mix (Integrated DNA Technologies), the target genes CYP11A1, CYP17A1, CYP21A2, or STAR, and the control gene ACTB PrimeTime (registered trademark) qPCR Probe Assays (Integrated DNA Technologies), and Nuclease free water were mixed at a ratio of 20:1:1:10 to prepare a PrimerProbe mix. The prepared PrimerProbe mix was added to a 384-well plate at 8 μL/well, and the cDNA obtained by reverse transcription was added at 2 μL/well. Real-Time PCR was performed under fast cycling conditions (95° C. for 3 min, followed by 40 cycles of 95° C. for 5 seconds and 62° C. for 30 seconds) to measure the fluorescent signal. The obtained data was analyzed using GraphPad Prism9 (GraphPad Software Inc.) to calculate the concentration (IC50 value) that reduces the mRNA expression level by 50%. The IC50 values (unit: nM) for CYP11A1, CYP17A1, CYP21A2, and STAR, of the compounds corresponding to each Example number are shown in Table 94.
For orientation: In qPCR the cycle at which signal appears reflects the starting amount.

The subject of experiment [3] is STAR. Briefly: Changes in SF1 target gene expression for NCI-H295R: STAR mRNA (qPCR). It is filed as cell-based. The following applies: Homo sapiens, NCI-H295R cells, 24 hr. Here is the method:
as §1

Experiment [4] concerns CYP17A1. In words: Changes in SF1 target gene expression for NCI-H295R: CYP17A1 mRNA (qPCR). Format: cell-based. The following applies: Homo sapiens, NCI-H295R cells, 24 hr. Here is the method:
as §1

The subject of experiment [5] is CYP11A1. Briefly: Changes in SF1 target gene expression for NCI-H295R: CYP11A1 mRNA (qPCR). It is filed as cell-based. The following applies: Homo sapiens, NCI-H295R cells, 24 hr. On the procedure: as §1

Sequence of SF1-LBD (Q13285 222-459 limits assumed): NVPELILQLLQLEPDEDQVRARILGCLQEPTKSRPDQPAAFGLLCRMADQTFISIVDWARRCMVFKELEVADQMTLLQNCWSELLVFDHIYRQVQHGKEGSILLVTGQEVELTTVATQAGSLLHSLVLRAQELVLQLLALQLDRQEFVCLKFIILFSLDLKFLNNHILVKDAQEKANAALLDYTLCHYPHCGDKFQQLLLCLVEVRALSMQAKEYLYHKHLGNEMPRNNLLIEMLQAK

What is called IC50 is the concentration needed to halve the response being measured. Turning to `COc1ccc([C@]2(CCN(Cc3ccc(O[C@H]4CC[C@H](CS(C)(=N)=O)CC4)cc3)C(=O)C(C)(C)C(F)F)CCOC(C)(C)C2)cc1` (single isomer, unassigned) [Example U11, 3,3-Difluoro-N-{2-[(4R)-4-(4-methoxyphenyl)-2,2-dimethyltetrahydro-2H-pyran-4-yl]ethyl}-2,2-dimethyl-N-{4-[(trans-4-{[(R) or (S)—S-methylsulfonimidoyl]methyl}cyclohexyl)oxy]benzyl}propanamide], the 50% inhibitory concentration (IC50) worked out at 0.021 µM in experiment [1]; 0.024 µM in experiment [2]; 0.054 µM in experiment [3]; 0.14 µM in experiment [4]; 0.01 µM in experiment [5].
On the same counts, the results for `CC1(C)CC(CCN(Cc2ccc(O[C@H]3CC[C@H](C(=O)O)CC3)cc2)C(=O)C(C)(C)C)(c2ccc(Cl)cc2)CCO1` (stereo partly drawn) [Example A6, Trans-4-(4-{[{2-[4-(4-chlorophenyl)-2,2-dimethyltetrahydro-2H-pyran-4-yl]ethyl)(2,2-dimethylpropanoyl)amino]methyl}phenoxy)cyclohexanecarboxylic acid] are 0.019 µM, 0.142 µM, 0.159 µM, 0.283 µM and 0.102 µM.
In the same order, the values of `CC1(C)CC(CCN(Cc2ccc(O[C@H]3CC[C@H](C(=O)O)CC3)cc2)C(=O)C(C)(C)C)(c2ccc(OC(F)(F)F)cc2)CCO1` (stereo partly drawn) [Example B5, Trans-4-(4-{[(2,2-dimethylpropanoyl) (2-{2,2-dimethyl-4-[4-(trifluoromethoxy)phenyl]tetrahydro-2H-pyran-4-yl}ethyl)amino]methyl}phenoxy)cyclohexanecarboxylic acid] are 0.02 µM, 0.017 µM, 0.024 µM, 0.056 µM and 0.01 µM.
As for `COc1ccc(C2(CCN(Cc3ccc(O[C@H]4CC[C@H](CC(=O)O)CC4)c(Cl)c3)C(=O)C(C)(C)C)CCOC(C)(C)C2)cc1` (stereo partly drawn) [Example C8, [Trans-4-(2-chloro-4-{[(2,2-dimethylpropanoyl) {2-[4-(4-methoxyphenyl)-2,2-dimethyltetrahydro-2H-pyran-4-yl]ethyl}amino]methyl}phenoxy)cyclohexyl]acetic acid], the concentration for half-maximal inhibition (IC50) is less than 0.016 µM in experiment [1]; 0.013 µM in experiment [2]; 0.026 µM in experiment [3]; 0.07 µM in experiment [4]; 0.0078 µM in experiment [5].
`COc1ccc(C2(CCN(Cc3ccc(O[C@H]4CC[C@H](C(=O)O)CC4)cc3)C(=O)C(C)(C)C)CCOC(C)(C)C2)cc1` (stereo partly drawn) [Example D3, Trans-4-(4-{[(2,2-dimethylpropanoyl){2-[4-(4-methoxyphenyl)-2,2-dimethyltetrahydro-2H-pyran-4-yl]ethyl}amino]methyl}phenoxy)cyclohexanecarboxylic acid]: the IC50 in experiment [1] stood at 0.029 µM; in experiment [2], 0.078 µM; in experiment [3], 0.076 µM; in experiment [4], 0.144 µM; in experiment [5] it was 0.053 µM.
In the case of `COc1ccc([C@]2(CCN(Cc3ccc(O[C@H]4CC[C@H](C(=O)O)CC4)cc3)C(=O)C(C)(C)C)CCOC(C)(C)C2)cc1` [Example E2, Trans-4-(4-{[(2,2-dimethylpropanoyl) {2-[(4R)-4-(4-methoxyphenyl)-2,2-dimethyltetrahydro-2H-pyran-4-yl]ethyl)amino]methyl}phenoxy)cyclohexanecarboxylic acid], the half-maximal inhibitory concentration (IC50) stood at 0.019 µM in experiment [1]; 0.033 µM in experiment [2]; 0.065 µM in experiment [3]; 0.189 µM in experiment [4]; 0.017 µM in experiment [5].
`CC(C)Oc1ccc(C2(CCN(Cc3ccc(O[C@H]4CC[C@H](C(=O)O)CC4)cc3)C(=O)C(C)(C)C)CCOC(C)(C)C2)cc1` (stereo partly drawn) [Example F4, Trans-4-(4-{[(2,2-dimethylpropanoyl) (2-{2,2-dimethyl-4-[4-(propan-2-yloxy)phenyl]tetrahydro-2H-pyran-4-yl}ethyl)amino]methyl}phenoxy)cyclohexanecarboxylic acid]: the IC50 amounted to 0.031 µM in experiment [1]; 0.023 µM in experiment [2]; 0.069 µM in experiment [3]; 0.166 µM in experiment [4]; 0.014 µM in experiment [5].
Regarding `CC1(C)CC(CCN(Cc2ccc(O[C@H]3CC[C@H](C(=O)O)CC3)cc2)C(=O)C(C)(C)C)(c2ccc(N3CCCC3)cc2)CCO1` (stereo partly drawn) [Example G3, Trans-4-(4-{[(2,2-dimethylpropanoyl) (2-{2,2-dimethyl-4-[4-(pyrrolidin-1-yl)phenyl]tetrahydro-2H-pyran-4-yl}ethyl)amino]methyl}phenoxy)cyclohexanecarboxylic acid], the half-maximal inhibitory concentration (IC50) in experiment [1] came out at 0.054 µM; in experiment [2], 0.042 µM; in experiment [3], 0.035 µM; in experiment [4], 0.073 µM; in experiment [5], 0.032 µM.
Take `COc1ccc(C2(CCN(Cc3ccc(O[C@H]4CC[C@H](C(=O)NS(=O)(=O)N(C)C)CC4)cc3)C(=O)C(C)(C)C)CCOC(C)(C)C2)cc1` (stereo partly drawn) [Example H1, Trans-4-(4-{[(2,2-dimethylpropanoyl) {2-[4-(4-methoxyphenyl)-2,2-dimethyltetrahydro-2H-pyran-4-yl]ethyl}amino]methyl}phenoxy)-N-(dimethylsulfamoyl)cyclohexanecarboxamide]: the IC50 stood at 0.032 µM in experiment [1]; 0.039 µM in experiment [2]; 0.037 µM in experiment [3]; 0.08 µM in experiment [4]; 0.025 µM in experiment [5].
Take `COc1ccc([C@]2(CCN(Cc3ccc(C4=CC[C@H](C(=O)O)CC4)c(F)c3)CC(C)(C)C(F)(F)F)CCOC(C)(C)C2)cc1` [Example V5, (4R)-2′-Fluoro-4′-{[{2-[(4R)-4-(4-methoxyphenyl)-2,2-dimethyltetrahydro-2H-pyran-4-yl]ethyl)(3,3,3-trifluoro-2,2-dimethylpropyl)amino]methyl}-2,3,4,5-tetrahydro[biphenyl]-4-carboxylic acid monohydrochloride]: the IC50 in experiment [2] came out at 0.021 µM; in experiment [3] it was 0.018 µM; in experiment [4], 0.071 µM; in experiment [5], 0.0098 µM.
Turning to `COc1ccc([C@]2(CCN(Cc3ccc(C4=CC[C@H](CO)CC4)cc3)CC(C)(C)C(F)(F)F)CCOC(C)(C)C2)cc1` [Example W5, [(4R)-4′-{[{2-[(4R)-4-(4-Methoxyphenyl)-2,2-dimethyltetrahydro-2H-pyran-4-yl]ethyl)(3,3,3-trifluoro-2,2-dimethylpropyl)amino]methyl}-2,3,4,5-tetrahydro[biphenyl]-4-yl]methanol], the IC50 in experiment [2] is 0.138 µM; in experiment [3], 0.131 µM; in experiment [4] it was 0.372 µM; in experiment [5], 0.09 µM.
On the same counts, the results for `COc1ccc([C@]2(CCN(Cc3ccc(C4=CC[C@H](CN5CCN(C(=O)OC(C)(C)C)CC5)CC4)cc3)CC(C)(C)C(F)(F)F)CCOC(C)(C)C2)cc1` [Example X2, tert-Butyl 4-{[(4R)-4′-{[{2-[(4R)-4-(4-methoxyphenyl)-2,2-dimethyltetrahydro-2H-pyran-4-yl]ethyl)(3,3,3-trifluoro-2,2-dimethylpropyl)amino]methyl}-2,3,4,5-tetrahydro[biphenyl]-4-yl]methyl}piperazine-1-carboxylate] are 0.581 µM, 0.776 µM, 1.23 µM and 0.511 µM.
